Source: patent US7348425B2, “Inhibitors of HCV replication” (Bristol-Myers Squibb Company, priority 2004, dated 2008)

biological target: T1, HCV NS5B RdRp genotype 1b (Hepatitis C virus genotype 1b, UniProt Q9WMX2); assay: Modified HCV NS5B RdRp enzyme assay (with preincubation); assay type: biochemical; settings: modified method (with preincubation)
T1 construct: The protein was expressed with an 18 amino acid C-terminal truncation to enhance the solubility; made in house; host or cells: E. coli BL21 (DE3), pET21a
Summary of the method: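 C-terminally truncated (Δ18) genotype 1b NS5B from E. coli was preincubated (14 nM) with compound, then reaction started with polyA template (0.2 nM), ³H-UTP (0.29 μM) and dT12 primer (20 nM) precaptured on SPA beads. Reaction ran 4 h at 30 °C in pH 7.5 Hepes buffer with 2% DMSO. IC50 came from seven concentrations.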

T1 sequence (Q9WMX2 2420-2992): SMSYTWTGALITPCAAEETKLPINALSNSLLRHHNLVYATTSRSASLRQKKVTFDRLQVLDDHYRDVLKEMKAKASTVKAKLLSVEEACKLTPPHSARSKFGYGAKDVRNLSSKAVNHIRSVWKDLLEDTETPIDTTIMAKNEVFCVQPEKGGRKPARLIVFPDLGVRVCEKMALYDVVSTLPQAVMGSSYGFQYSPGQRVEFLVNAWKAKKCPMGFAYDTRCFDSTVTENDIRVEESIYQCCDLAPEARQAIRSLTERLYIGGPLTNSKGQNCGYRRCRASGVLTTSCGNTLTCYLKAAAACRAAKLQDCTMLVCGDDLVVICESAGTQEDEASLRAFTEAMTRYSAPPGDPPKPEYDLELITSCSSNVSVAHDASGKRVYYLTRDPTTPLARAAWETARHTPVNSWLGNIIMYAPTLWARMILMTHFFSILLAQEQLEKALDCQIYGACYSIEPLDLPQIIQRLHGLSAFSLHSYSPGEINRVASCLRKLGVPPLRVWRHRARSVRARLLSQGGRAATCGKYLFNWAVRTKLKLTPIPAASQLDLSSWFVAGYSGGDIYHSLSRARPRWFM

| Compound | IC50 [nM] |
| --- | --- |
| COC(=O)c1ccc2c(C3CCCCC3)c3n(c2c1)CCCc1cc(OCc2cc([N+](=O)[O-])ccc2F)ccc1-3 | > 1000 |
| O=C(O)/C=C/c1ccc(NC(=O)C2(NC(=O)c3ccc4c(C5CCCCC5)c5n(c4c3)CCOc3ncccc3-5)CCCC2)cc1 | 20 to 1000 |
| COC(=O)C1=Cc2cccnc2-c2c(C3CCCCC3)c3ccc(C(=O)OC)cc3n2C1 | > 1000 |
| CC1CN(C(=O)C2=Cc3ccccc3-c3c(C4CCCCC4)c4ccc(C(=O)NS(=O)(=O)N(C)C)cc4n3C2)CC(C)N1 (stereo not shown) | 20 to 1000 |
| Nc1nc2c(s1)CCCn1c-2c(C2CCCCC2)c2ccc(C(=O)O)cc21 | > 1000 |
| O=C(O)/C=C/c1cccc(-c2nc(C3(NC(=O)c4ccc5c(C6CCCCC6)c6n(c5c4)CC=Cc4ccccc4-6)CCCC3)c[nH]2)c1 | 20 to 1000 |
| O=C(O)/C=C/c1ccc(NC(=O)C2(NC(=O)c3ccc4c(C5CCCCC5)c5n(c4c3)CC(=O)Nc3ccccc3-5)CCCC2)cc1 | 20 to 1000 |
| c1cnc2c(c1)-c1c(C3CCCCC3)c3ccc(-c4nnn[nH]4)cc3n1CCC2 | 20 to 1000 |
| CN(CC(O)CO)C(=O)C1=Cc2ccccc2-c2c(C3CCCCC3)c3ccc(C(=O)NS(=O)(=O)N(C)C)cc3n2C1 (stereo not shown) | 20 to 1000 |
| O=C(O)/C=C/c1ccc(NC(=O)C2(NC(=O)c3ccc4c(C5CCCCC5)c5n(c4c3)CCCc3ocnc3-5)CCCC2)cc1 | 20 to 1000 |
| CN(C)S(=O)(=O)NC(=O)c1ccc2c(C3CCCCC3)c3n(c2c1)CCN(C(=O)OC(C)(C)C)c1ccccc1-3 | 20 to 1000 |
| COC(=O)/C=C/c1ccc(NC(=O)C2(NC(=O)c3ccc4c(C5CCCCC5)c5n(c4c3)C[C@@H](O)[C@@H](O)c3ccccc3-5)CCCC2)cc1 | 20 to 1000 |
| O=C(NS(=O)(=O)C1CC1)c1ccc2c(C3CCCCC3)c3n(c2c1)CC=Cc1ncccc1-3 | 20 to 1000 |
| CS(=O)(=O)NC(=O)c1ccc2c(C3CCCCC3)c3n(c2c1)CC(C(=O)N1CCOCC1)=Cc1ccccc1-3 | 20 to 1000 |
| O=C(NS(=O)(=O)c1ccccc1)c1ccc2c(C3CCCCC3)c3n(c2c1)CC(C(=O)N1CCOCC1)Cc1ccccc1-3 (stereo not shown) | 20 to 1000 |
| O=C(O)c1ccc2c(C3CCCCC3)c3n(c2c1)CCN(C(=O)NC1CCCC1)c1ccccc1-3 | 20 to 1000 |
| O=C(NS(=O)(=O)Cc1ccccc1)c1ccc2c(C3CCCCC3)c3n(c2c1)CCCc1ncccc1-3 | 20 to 1000 |
| O=C(O)/C=C/c1ccc(NC(=O)C2(NC(=O)c3ccc4c(C5CCCCC5)c5n(c4c3)CCNc3ccccc3-5)CCCC2)cc1 | 20 to 1000 |
| COC(=O)c1ccc2c(C3CCCCC3)c3n(c2c1)C[C@@H](O)[C@@H](O)c1ccccc1-3 | > 1000 |
| CN(C)C(=O)C1=Cc2ccccc2-c2c(C3CCCCC3)c3ccc(C(=O)NS(=O)(=O)N(C)C)cc3n2C1 | 20 to 1000 |
| Cn1cnc(S(=O)(=O)NC(=O)c2ccc3c(C4CCCCC4)c4n(c3c2)CC=Cc2ncccc2-4)c1 | 20 to 1000 |
| CN(C)S(=O)(=O)NC(=O)c1ccc2c(C3CCCCC3)c3n(c2c1)CC=Cc1ncccc1-3 | 20 to 1000 |
| COC(=O)c1ccc2c(c1)CCN(S(=O)(=O)NC(=O)c1ccc3c(C4CCCCC4)c4n(c3c1)CC(=O)Nc1ccccc1-4)C2 | 20 to 1000 |
| COC(=O)/C=C/c1ccc(NC(=O)C2(NC(=O)c3ccc4c(C5CCCCC5)c5n(c4c3)CCCc3sc(N)nc3-5)CCCC2)cc1 | > 1000 |
| O=C(NS(=O)(=O)Cc1ccccc1)c1ccc2c(C3CCCCC3)c3n(c2c1)CC=Cc1ncccc1-3 | 20 to 1000 |
| COc1ccc2c(c1)C=C(C(=O)N1CCOCC1)Cn1c-2c(C2CCCCC2)c2ccc(C(=O)O)cc21 | 20 to 1000 |
| CN(Cc1ccc(C(=O)O)cc1)S(=O)(=O)NC(=O)c1ccc2c(C3CCCCC3)c3n(c2c1)CC(=O)Nc1ccccc1-3 | 20 to 1000 |
| Cn1c(C(=O)O)cc2cc(NC(=O)C3(NC(=O)c4ccc5c(C6CCCCC6)c6n(c5c4)CCNc4ccccc4-6)CCCC3)ccc21 | 20 to 1000 |
| CN(Cc1ccccc1)S(=O)(=O)NC(=O)c1ccc2c(C3CCCCC3)c3n(c2c1)CC(=O)Nc1ccccc1-3 | 20 to 1000 |

system: HCV replicon; assay: HCV replicon FRET assay; assay type: cell-based; settings: Hepatitis C virus; FRET assay; read-out: EC50
Summary of the method: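 Replicon cells (± Renilla luciferase reporter) incubated with titrated compound at 37 °C; NS3 protease activity read by FRET peptide cleavage (20 uM EDANS/DABCYL substrate, 340/490 nm kinetic) or luciferase.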

| Compound | EC50 [nM] |
| --- | --- |
| COC(=O)c1ccc2c(C3CCCCC3)c3n(c2c1)CCCc1cc(OCc2cc([N+](=O)[O-])ccc2F)ccc1-3 | 1000 to 10000 |
| O=C(O)/C=C/c1ccc(NC(=O)C2(NC(=O)c3ccc4c(C5CCCCC5)c5n(c4c3)CCOc3ncccc3-5)CCCC2)cc1 | 10 to 1000 |
| COC(=O)C1=Cc2cccnc2-c2c(C3CCCCC3)c3ccc(C(=O)OC)cc3n2C1 | 1000 to 10000 |
| CC1CN(C(=O)C2=Cc3ccccc3-c3c(C4CCCCC4)c4ccc(C(=O)NS(=O)(=O)N(C)C)cc4n3C2)CC(C)N1 (stereo not shown) | 10 to 1000 |
| Nc1nc2c(s1)CCCn1c-2c(C2CCCCC2)c2ccc(C(=O)O)cc21 | > 10000 |
| O=C(O)/C=C/c1cccc(-c2nc(C3(NC(=O)c4ccc5c(C6CCCCC6)c6n(c5c4)CC=Cc4ccccc4-6)CCCC3)c[nH]2)c1 | 10 to 1000 |
| O=C(O)/C=C/c1ccc(NC(=O)C2(NC(=O)c3ccc4c(C5CCCCC5)c5n(c4c3)CC(=O)Nc3ccccc3-5)CCCC2)cc1 | 10 to 1000 |
| c1cnc2c(c1)-c1c(C3CCCCC3)c3ccc(-c4nnn[nH]4)cc3n1CCC2 | 1000 to 10000 |
| CN(CC(O)CO)C(=O)C1=Cc2ccccc2-c2c(C3CCCCC3)c3ccc(C(=O)NS(=O)(=O)N(C)C)cc3n2C1 (stereo not shown) | 10 to 1000 |
| O=C(O)/C=C/c1ccc(NC(=O)C2(NC(=O)c3ccc4c(C5CCCCC5)c5n(c4c3)CCCc3ocnc3-5)CCCC2)cc1 | 10 to 1000 |
| CN(C)S(=O)(=O)NC(=O)c1ccc2c(C3CCCCC3)c3n(c2c1)CCN(C(=O)OC(C)(C)C)c1ccccc1-3 | 10 to 1000 |
| COC(=O)/C=C/c1ccc(NC(=O)C2(NC(=O)c3ccc4c(C5CCCCC5)c5n(c4c3)C[C@@H](O)[C@@H](O)c3ccccc3-5)CCCC2)cc1 | < 100 |
| O=C(NS(=O)(=O)C1CC1)c1ccc2c(C3CCCCC3)c3n(c2c1)CC=Cc1ncccc1-3 | 1000 to 10000 |
| CS(=O)(=O)NC(=O)c1ccc2c(C3CCCCC3)c3n(c2c1)CC(C(=O)N1CCOCC1)=Cc1ccccc1-3 | 10 to 1000 |
| O=C(NS(=O)(=O)c1ccccc1)c1ccc2c(C3CCCCC3)c3n(c2c1)CC(C(=O)N1CCOCC1)Cc1ccccc1-3 (stereo not shown) | 10 to 1000 |
| O=C(O)c1ccc2c(C3CCCCC3)c3n(c2c1)CCN(C(=O)NC1CCCC1)c1ccccc1-3 | 10 to 1000 |
| O=C(NS(=O)(=O)Cc1ccccc1)c1ccc2c(C3CCCCC3)c3n(c2c1)CCCc1ncccc1-3 | 1000 to 10000 |
| O=C(O)/C=C/c1ccc(NC(=O)C2(NC(=O)c3ccc4c(C5CCCCC5)c5n(c4c3)CCNc3ccccc3-5)CCCC2)cc1 | 10 to 1000 |
| COC(=O)c1ccc2c(C3CCCCC3)c3n(c2c1)C[C@@H](O)[C@@H](O)c1ccccc1-3 | 1000 to 10000 |
| CN(C)C(=O)C1=Cc2ccccc2-c2c(C3CCCCC3)c3ccc(C(=O)NS(=O)(=O)N(C)C)cc3n2C1 | 10 to 1000 |
| Cn1cnc(S(=O)(=O)NC(=O)c2ccc3c(C4CCCCC4)c4n(c3c2)CC=Cc2ncccc2-4)c1 | > 10000 |
| CN(C)S(=O)(=O)NC(=O)c1ccc2c(C3CCCCC3)c3n(c2c1)CC=Cc1ncccc1-3 | 1000 to 10000 |
| COC(=O)c1ccc2c(c1)CCN(S(=O)(=O)NC(=O)c1ccc3c(C4CCCCC4)c4n(c3c1)CC(=O)Nc1ccccc1-4)C2 | 1000 to 10000 |
| COC(=O)/C=C/c1ccc(NC(=O)C2(NC(=O)c3ccc4c(C5CCCCC5)c5n(c4c3)CCCc3sc(N)nc3-5)CCCC2)cc1 | > 10000 |
| O=C(NS(=O)(=O)Cc1ccccc1)c1ccc2c(C3CCCCC3)c3n(c2c1)CC=Cc1ncccc1-3 | 1000 to 10000 |
| COc1ccc2c(c1)C=C(C(=O)N1CCOCC1)Cn1c-2c(C2CCCCC2)c2ccc(C(=O)O)cc21 | 10 to 1000 |
| CN(Cc1ccc(C(=O)O)cc1)S(=O)(=O)NC(=O)c1ccc2c(C3CCCCC3)c3n(c2c1)CC(=O)Nc1ccccc1-3 | 1000 to 10000 |
| Cn1c(C(=O)O)cc2cc(NC(=O)C3(NC(=O)c4ccc5c(C6CCCCC6)c6n(c5c4)CCNc4ccccc4-6)CCCC3)ccc21 | 10 to 1000 |
| CN(Cc1ccccc1)S(=O)(=O)NC(=O)c1ccc2c(C3CCCCC3)c3n(c2c1)CC(=O)Nc1ccccc1-3 | 10 to 1000 |
